The IC50 is the concentration needed to halve the response being measured. The low end stands for greater potency, the high end for weaker potency.

For this assay, the target named is CDK2 (UniProt P24941). Briefly: Enzyme Assay.
Turning to `CSc1cc(Nc2cc(N[C@H]3CC[C@H](N)CC3)nc3ccnn23)ccc1S(=O)(=O)N(C)C`, the IC50 was > 50 µM.

Take `CC(C)c1cnn2c(NCc3ccncc3)cc(-c3cccc(Br)c3)nc12`: the IC50 was 0.53 µM.

`COc1cc(Nc2cc(N[C@H]3CC[C@H](N)CC3)nc3c(Br)cnn23)ccc1S(=O)(=O)N(C)C` yielded an IC50 of 0.27 µM.

`CC(C)c1cnn2c(Nc3ccc(S(=O)(=O)N4CCCC4)cc3)cc(Cl)nc12` returned an IC50 of 0.27 µM.

`N[C@H]1CC[C@H](Oc2cc(Nc3ccc(S(=O)(=O)c4ccccc4)cc3)n3ncc(Cl)c3n2)CC1` came in with a 50% inhibitory concentration (IC50) of 0.045 µM.

Molecule `CC(C)c1cnn2c(Nc3ccc(S(=O)(=O)N(C)C)cc3)cc(Nc3ccncc3)nc12` came in with an IC50 of 3.09 µM.

For the molecule `CC(C)c1cnn2c(NC3CCN(S(=O)(=O)C(C)C)CC3)cc(N[C@H]3CC[C@H](N)CC3)nc12`, the IC50 was found to be 11.9 µM.

The molecule `CC(C)c1cnn2c(Nc3ccc(S(C)(=O)=O)cc3)cc(OC3CCCCC3)nc12` showed a 50% inhibitory concentration (IC50) of 0.95 µM.

The molecule `CC(C)c1cnn2c(Nc3ccc(S(=O)(=O)N(C)CCO)cc3)cc(NC3CCCC3)nc12` gave a half-inhibitory concentration (IC50) of 0.302 µM.

The molecule `N[C@H]1CC[C@H](Oc2cc(Nc3ccc(S(=O)(=O)c4ccccc4)cc3)n3ncc(Br)c3n2)CC1` yielded a half-inhibitory concentration (IC50) of 0.015 µM.

Molecule `CCc1cnn2c(Nc3ccc(C(N)=O)cc3)cc(N[C@H]3CC[C@@H](N)CC3)nc12` gave an IC50 of 0.35 µM.

On to `CC(C)c1cnn2c(Nc3ccc(S(C)(=O)=O)cc3)cc(Cl)nc12`, for which the IC50 came out at 0.22 µM.

On to `N[C@H]1CC[C@H](Nc2cc(Nc3ccc(S(=O)(=O)c4ccccc4)cc3)n3ncc(Cl)c3n2)CC1`, for which the 50% inhibitory concentration (IC50) amounted to 0.015 µM.

In turn, `CCNC(=O)N[C@H]1CC[C@H](Nc2cc(Nc3ccc(S(=O)(=O)N(C)C)cc3)n3ncc(C(C)C)c3n2)CC1` yielded an IC50 of 0.305 µM.

`CC(C)c1cnn2c(Nc3ccc(S(=O)(=O)N(C)CCO)cc3)cc(OCCN(C)C)nc12`: the IC50 was 0.24 µM.
